Assay results: patent US5084453A, “1-carboxy-1-vinyloxyimino aminothiazole cephalosporin derivatives” (priority 1988, dated 1992)
≈ marks a conversion by molar mass, not a printed value. Where two headings read alike, the source gives them in different places.

Legend:
Test in all cases: in vitro antibacterial activity, agar plate dilution method
Format in all cases: cell-based
M. morganii GN5407* = conditions: Morganella morganii, GN5407, 16 h
In short: (§1)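 Minimum inhibitory concentrations, expressed as μg/ml, come from agar dilution plates of Mueller Hinton medium that carry the antibiotic at various concentrations. A loopful of overnight broth culture is applied to each plate, and the plates are read after 16 hours at 37° C.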

E. coli NIHJ JC2 = conditions: Escherichia coli, NIHJJC2; 10^6 CFU/ml; Mueller Hinton agar, 37° C., 16 hours; read-out: MIC
In short: as §1

Ps. aeruginosa AKR17 = conditions: Pseudomonas aeruginosa, AKR17; 10^6 CFU/ml; Mueller Hinton agar, 37° C., 16 hours; read-out: MIC
In short: as §1

Ps. aeruginosa IFO3445 = conditions: Pseudomonas aeruginosa
In short: as §1

E. cloacae Nek 39* = conditions: Enterobacter cloacae
In short: as §1

P. vulgaris No. 33* = conditions: Proteus vulgaris
In short: as §1

P. vulgaris HX-19 = conditions: Proteus vulgaris
In short: as §1

Ps. cepacia 23 = test system: Ps. cepacia 23
In short: as §1

Ps. aeruginosa AK 109 = conditions: Pseudomonas aeruginosa
In short: as §1

S. aureus 209P NIHJ-JC1 = conditions: Staphylococcus aureus
In short: as §1

E. coli CSH2(RK1)* = conditions: Escherichia coli, 16 h
In short: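 MIC (μg/ml) read after 16 h at 37° C. on Mueller Hinton agar with graded drug levels; inoculum one platinum loopful of overnight MH broth culture.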

K. pneumoniae No. 42* = conditions: Klebsiella pneumoniae
In short: as §1

E. coli GN5482* = conditions: Escherichia coli
In short: as §1

A. calcoaceticus No. 4 = conditions: Acinetobacter calcoaceticus
In short: as §1

S. marcescens IAM 1184 = conditions: Serratia marcescens
In short: as §1

E. cloacae 963 = conditions: Enterobacter cloacae, 963, 16 h
In short: as §1

S. marcescens No. 16-2* = conditions: Serratia marcescens
In short: as §1

K. oxytoca GN10650* = conditions: Klebsiella oxytoca, GN10650, 16 h
In short: as §1

E. coli CSH(RE45)* = conditions: Escherichia coli; 10^6 CFU/ml; β-Lactamase-producing strain; 37° C., 16 hours; read-out: MIC
In short: as §1

K. pneumoniae PC1-602 = conditions: Klebsiella pneumoniae
In short: as §1

[1] = 10^6 CFU/ml, β-Lactamase-producing strain, 37° C., 16 hours, read-out: MIC
[2] = HX19, 10^6 CFU/ml, Mueller Hinton agar, 37° C., 16 hours, read-out: MIC
[3] = AK109, 10^6 CFU/ml, Mueller Hinton agar, 37° C., 16 hours, read-out: MIC
[4] = GN5482, 10^6 CFU/ml, β-Lactamase-producing strain, 37° C., 16 hours, read-out: MIC
[5] = NO.4, 10^6 CFU/ml, Mueller Hinton agar, 37° C., 16 hours, read-out: MIC
[6] = Burkholderia cepacia, 23, 10^6 CFU/ml, Mueller Hinton agar, 37° C., 16 hours, read-out: MIC
[7] = IAM1184, 10^6 CFU/ml, Mueller Hinton agar, 37° C., 16 hours, read-out: MIC
[8] = PC1602, 10^6 CFU/ml, Mueller Hinton agar, 37° C., 16 hours, read-out: MIC
[9] = IFO3445, 10^6 CFU/ml, Mueller Hinton agar, 37° C., 16 hours, read-out: MIC
[10] = 10^6 CFU/ml, Mueller Hinton agar, 37° C., 16 hours, read-out: MIC

Structure (SMILES)	MIC (M. morganii GN5407*)	MIC (E. coli NIHJ JC2)	MIC (Ps. aeruginosa AKR17)	MIC (Ps. aeruginosa IFO3445; IFO3445, 16 h)	MIC (E. cloacae Nek 39*; [1])	MIC (P. vulgaris No. 33*; 16 h)	MIC (P. vulgaris HX-19; [2])	MIC (Ps. cepacia 23; Burkholderia cepacia, 23, 16 h)	MIC (Ps. aeruginosa AK 109; [3])	MIC (S. aureus 209P NIHJ-JC1; 16 h)	MIC (E. coli CSH2(RK1)*)	MIC (K. pneumoniae No. 42*; 16 h)	MIC (A. calcoaceticus No. 4; [5])	MIC (S. marcescens IAM 1184; IAM1184, 16 h)	MIC (E. cloacae 963)	MIC (S. marcescens No. 16-2*; [1])	MIC (K. oxytoca GN10650*)	MIC (E. coli CSH(RE45)*)	MIC (K. pneumoniae PC1-602; PC1602, 16 h)	MIC (E. coli GN5482*; GN5482, 16 h)	also measured
C=C(O/N=C(\C(=O)N[C@@H]1C(=O)N2C(C(=O)[O-])=C(C[n+]3cccc(C(=O)O)c3)CS[C@H]12)c1csc(N)n1)C(=O)O [Example 3, 7β-[2-(2-aminothiazol-4-yl)-2-(1-carboxy-1-vinyloxyimino)acetamido]-3-(3-carboxy-1-pyridinio)methyl-3-cephem-4-carboxylate (syn-isomer)]	0.05 mg/L (≈ 0.087 µM)	0.2 mg/L (≈ 0.348 µM)	> 100 mg/L	6.25 mg/L (≈ 10.9 µM)	3.12 mg/L (≈ 5.43 µM)	0.05 mg/L (≈ 0.087 µM)	0.0125 mg/L (≈ 0.0218 µM)	6.25 mg/L (≈ 10.9 µM)	100 mg/L (≈ 174 µM)	6.25 mg/L (≈ 10.9 µM)	0.05 mg/L (≈ 0.087 µM)	0.39 mg/L (≈ 0.679 µM)	25 mg/L (≈ 43.5 µM)	0.05 mg/L (≈ 0.087 µM)	0.1 mg/L (≈ 0.174 µM)	3.12 mg/L (≈ 5.43 µM)	0.2 mg/L (≈ 0.348 µM)	0.05 mg/L (≈ 0.087 µM)	0.025 mg/L (≈ 0.0435 µM)		MIC (E. coli GN5482*; [4]): 3.12 mg/L (≈ 5.43 µM)
C=C(O/N=C(\C(=O)N[C@@H]1C(=O)N2C(C(=O)[O-])=C(C[n+]3cccc(NC=O)c3)CS[C@H]12)c1csc(N)n1)C(=O)O [Example 10, sodium 7β-[2-(2-aminothiazol-4-yl)-2-(1-carboxylato-1-vinyloxyimino)acetamido]-3-(3-formylamino-1-pyridinio)methyl-3-cephem-4-carboxylate (syn-isomer)]	0.0125 mg/L	0.0125 mg/L	> 100 mg/L	0.78 mg/L		0.0125 mg/L	< 0.006 mg/L		3.12 mg/L	1.56 mg/L	0.0125 mg/L	0.05 mg/L	3.12 mg/L		0.025 mg/L		0.05 mg/L	0.0125 mg/L		0.1 mg/L	MIC (E. cloacae Nek 39*; 16 h): 0.39 mg/L; MIC (Ps. cepacia 23; [6]): 3.12 mg/L; MIC (S. marcescens IAM 1184; [7]): < 0.006 mg/L; MIC (S. marcescens No. 16-2*; 16 h): 1.56 mg/L; MIC (K. pneumoniae PC1-602; [8]): < 0.006 mg/L
C=C(O/N=C(\C(=O)N[C@@H]1C(=O)N2C(C(=O)O)=C(C[n+]3ccc(CCS(=O)(=O)[O-])cc3)CS[C@H]12)c1csc(N)n1)C(=O)O [Example 8, 7β-[2-(2-aminothiazol-4-yl)-2-(1-carboxy-1-vinyloxyimino)acetamido]-3-[4-(2-sulfonatoethyl)-1-pyridinio]methyl-3-cephem-4-carboxylic acid (syn-isomer)]	0.05 mg/L (≈ 0.0783 µM)	0.05 mg/L (≈ 0.0783 µM)	> 100 mg/L			0.05 mg/L (≈ 0.0783 µM)			12.5 mg/L (≈ 19.6 µM)		0.05 mg/L (≈ 0.0783 µM)		12.5 mg/L (≈ 19.6 µM)	0.025 mg/L (≈ 0.0391 µM)	0.2 mg/L (≈ 0.313 µM)	3.12 mg/L (≈ 4.89 µM)	0.2 mg/L (≈ 0.313 µM)	0.05 mg/L (≈ 0.0783 µM)	0.025 mg/L (≈ 0.0391 µM)		MIC (Ps. aeruginosa IFO3445; [9]): 3.12 mg/L (≈ 4.89 µM); MIC (E. cloacae Nek 39*; 16 h): 0.78 mg/L (≈ 1.22 µM); MIC (P. vulgaris HX-19; HX19, 16 h): 0.025 mg/L (≈ 0.0391 µM); MIC (Ps. cepacia 23; [6]): 12.5 mg/L (≈ 19.6 µM); MIC (S. aureus 209P NIHJ-JC1; [10]): 6.25 mg/L (≈ 9.79 µM); MIC (K. pneumoniae No. 42*; [1]): 0.39 mg/L (≈ 0.611 µM); MIC (E. coli GN5482*; [4]): 0.39 mg/L (≈ 0.611 µM)
CC(C)(O/N=C(\C(=O)N[C@@H]1C(=O)N2C(C(=O)[O-])=C(C[n+]3ccccc3)CS[C@H]12)c1csc(N)n1)C(=O)O [Ceftazidime, reference compound]	0.1 mg/L (≈ 0.183 µM)	0.1 mg/L (≈ 0.183 µM)	> 100 mg/L	1.56 mg/L (≈ 2.85 µM)		0.5 mg/L (≈ 0.915 µM)		0.78 mg/L (≈ 1.43 µM)		6.25 mg/L (≈ 11.4 µM)	0.1 mg/L (≈ 0.183 µM)	0.39 mg/L (≈ 0.714 µM)		< 0.006 mg/L	0.1 mg/L (≈ 0.183 µM)		0.1 mg/L (≈ 0.183 µM)	0.2 mg/L (≈ 0.366 µM)	0.25 mg/L (≈ 0.457 µM)	1.56 mg/L (≈ 2.85 µM)	MIC (E. cloacae Nek 39*; 16 h): 1.56 mg/L (≈ 2.85 µM); MIC (P. vulgaris HX-19; HX19, 16 h): 0.025 mg/L (≈ 0.0457 µM); MIC (Ps. aeruginosa AK 109; AK109, 16 h): 0.78 mg/L (≈ 1.43 µM); MIC (A. calcoaceticus No. 4; NO.4, 16 h): 6.25 mg/L (≈ 11.4 µM); MIC (S. marcescens No. 16-2*; 16 h): 1.56 mg/L (≈ 2.85 µM)
C=C(O/N=C(\C(=O)N[C@@H]1C(=O)N2C(C(=O)O)=C(COC(C)=O)CS[C@H]12)c1csc(N)n1)C(=O)O [Example 17, disodium 7β-[2-(2-aminothiazol-4-yl)-2-(1-carboxylato-1-vinyloxyimino)acetamido]cephalosporanate (syn-isomer)]	0.025 mg/L	0.1 mg/L	> 100 mg/L	6.25 mg/L	3.12 mg/L	0.1 mg/L	< 0.006 mg/L	1.56 mg/L			0.025 mg/L	0.2 mg/L	25 mg/L		0.1 mg/L	3.12 mg/L	0.05 mg/L	0.1 mg/L		1.56 mg/L	MIC (Ps. aeruginosa AK 109; AK109, 16 h): 6.25 mg/L; MIC (S. aureus 209P NIHJ-JC1; [10]): 12.5 mg/L; MIC (S. marcescens IAM 1184; [7]): 0.0125 mg/L; MIC (K. pneumoniae PC1-602; [8]): 0.0125 mg/L
C=C(O/N=C(\C(=O)N[C@@H]1C(=O)N2C(C(=O)[O-])=C(C[n+]3ccc(C(=O)O)cc3)CS[C@H]12)c1csc(N)n1)C(=O)O [Example 5, 7β-[2-(2-aminothiazol-4-yl)-2-(1-carboxy-1-vinyloxyimino)acetamido]-3-(4-carboxy-1-pyridinio)methyl-3-cephem-4-carboxylate (syn-isomer)]	0.025 mg/L (≈ 0.0435 µM)	0.2 mg/L (≈ 0.348 µM)	> 100 mg/L		3.12 mg/L (≈ 5.43 µM)		< 0.006 mg/L		25 mg/L (≈ 43.5 µM)		0.2 mg/L (≈ 0.348 µM)	0.39 mg/L (≈ 0.679 µM)	50 mg/L (≈ 87 µM)	0.025 mg/L (≈ 0.0435 µM)	0.2 mg/L (≈ 0.348 µM)		0.39 mg/L (≈ 0.679 µM)	0.05 mg/L (≈ 0.087 µM)	0.025 mg/L (≈ 0.0435 µM)	1.56 mg/L (≈ 2.72 µM)	MIC (Ps. aeruginosa IFO3445; [9]): 25 mg/L (≈ 43.5 µM); MIC (P. vulgaris No. 33*; [1]): 0.0125 mg/L (≈ 0.0218 µM); MIC (Ps. cepacia 23; [6]): 12.5 mg/L (≈ 21.8 µM); MIC (S. aureus 209P NIHJ-JC1; [10]): 12.5 mg/L (≈ 21.8 µM); MIC (S. marcescens No. 16-2*; 16 h): 6.25 mg/L (≈ 10.9 µM)
